# According to PubChem BioAssay (NCI):
#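 Assay format: 96-well plates, 48-hour exposure. Abbreviation: GI50, concentration required for 50% inhibition of growth. Definition used: TGI = concentration required for complete inhibition of growth.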
# Key:
# Test in all cases: inhibition of tumour cell growth, NCI panel, 48 h
# 786-0 renal = tested on: 786-0 renal
# A498 renal = tested on: A498 renal
# A549 NSCLC = tested on: A549 NSCLC
# ACHN renal = tested on: ACHN renal
# BT-549 breast = tested on: BT-549 breast
# CAKI-1 renal = tested on: CAKI-1 renal
# CCRF-CEM leukemia = tested on: CCRF-CEM leukemia
# COLO 205 colon = tested on: COLO 205 colon
# DU-145 prostate = tested on: DU-145 prostate
# EKVX NSCLC = tested on: EKVX NSCLC
# HCC-2998 colon = tested on: HCC-2998 colon
# HCT-116 colon = tested on: HCT-116 colon
# HCT-15 colon = tested on: HCT-15 colon
# HL-60(TB) leukemia = tested on: HL-60(TB) leukemia
# HOP-62 NSCLC = tested on: HOP-62 NSCLC
# HOP-92 NSCLC = tested on: HOP-92 NSCLC
# HS 578T breast = tested on: HS 578T breast
# HT29 colon = tested on: HT29 colon
# IGROV1 ovarian = tested on: IGROV1 ovarian
# K-562 leukemia = tested on: K-562 leukemia
# KM12 colon = tested on: KM12 colon
# LOX IMVI melanoma = tested on: LOX IMVI melanoma
# M14 melanoma = tested on: M14 melanoma
# MALME-3M melanoma = tested on: MALME-3M melanoma
# MCF7 breast = tested on: MCF7 breast
# MDA-MB-231 breast = tested on: MDA-MB-231 breast
# MDA-MB-435 = tested on: MDA-MB-435
# MOLT-4 leukemia = tested on: MOLT-4 leukemia
# NCI-H226 lung = tested on: NCI-H226 lung
# NCI-H23 lung = tested on: NCI-H23 lung
# NCI-H460 lung = tested on: NCI-H460 lung
# NCI-H522 lung = tested on: NCI-H522 lung
# NCI/ADR-RES ovarian = tested on: NCI/ADR-RES ovarian
# OVCAR-3 ovarian = tested on: OVCAR-3 ovarian
# OVCAR-4 ovarian = tested on: OVCAR-4 ovarian
# OVCAR-5 ovarian = tested on: OVCAR-5 ovarian
# OVCAR-8 ovarian = tested on: OVCAR-8 ovarian
# PC-3 prostate = tested on: PC-3 prostate
# RPMI-8226 leukemia = tested on: RPMI-8226 leukemia
# RXF 393 renal = tested on: RXF 393 renal
# SF-268 CNS = tested on: SF-268 CNS
# SF-295 CNS = tested on: SF-295 CNS
# SF-539 CNS = tested on: SF-539 CNS
# SK-MEL-2 melanoma = tested on: SK-MEL-2 melanoma
# SK-MEL-28 melanoma = tested on: SK-MEL-28 melanoma
# SK-MEL-5 melanoma = tested on: SK-MEL-5 melanoma
# SK-OV-3 ovarian = tested on: SK-OV-3 ovarian
# SN12C renal = tested on: SN12C renal
# SNB-19 CNS = tested on: SNB-19 CNS
# SNB-75 CNS = tested on: SNB-75 CNS
# SR leukemia = tested on: SR leukemia
# SW-620 colon = tested on: SW-620 colon
# T-47D breast = tested on: T-47D breast
# TK-10 renal = tested on: TK-10 renal
# U251 CNS = tested on: U251 CNS
# UACC-257 melanoma = tested on: UACC-257 melanoma
# UACC-62 melanoma = tested on: UACC-62 melanoma
# UO-31 renal = tested on: UO-31 renal
structure (smiles),measurement,setting,value
Cc1ccncc1N1CCN(c2ccnc(Cl)c2)C1=O,GI50,786-0 renal,> 100 µM
same,TGI,786-0 renal,> 100 µM
same,GI50,A498 renal,> 100 µM
same,TGI,A498 renal,> 100 µM
same,GI50,A549 NSCLC,> 100 µM
same,TGI,A549 NSCLC,> 100 µM
same,GI50,ACHN renal,> 100 µM
same,TGI,ACHN renal,> 100 µM
same,GI50,BT-549 breast,> 100 µM
same,TGI,BT-549 breast,> 100 µM
same,GI50,CAKI-1 renal,> 100 µM
same,TGI,CAKI-1 renal,> 100 µM
same,GI50,CCRF-CEM leukemia,> 100 µM
same,TGI,CCRF-CEM leukemia,> 100 µM
same,GI50,COLO 205 colon,> 100 µM
same,TGI,COLO 205 colon,> 100 µM
same,GI50,DU-145 prostate,> 100 µM
same,TGI,DU-145 prostate,> 100 µM
same,GI50,EKVX NSCLC,> 100 µM
same,TGI,EKVX NSCLC,> 100 µM
same,GI50,HCC-2998 colon,> 100 µM
same,TGI,HCC-2998 colon,> 100 µM
same,GI50,HCT-116 colon,> 100 µM
same,TGI,HCT-116 colon,> 100 µM
same,GI50,HCT-15 colon,> 100 µM
same,TGI,HCT-15 colon,> 100 µM
same,GI50,HL-60(TB) leukemia,> 100 µM
same,TGI,HL-60(TB) leukemia,> 100 µM
same,GI50,HOP-62 NSCLC,> 100 µM
same,TGI,HOP-62 NSCLC,> 100 µM
same,GI50,HOP-92 NSCLC,> 100 µM
same,TGI,HOP-92 NSCLC,> 100 µM
same,GI50,HS 578T breast,> 100 µM
same,TGI,HS 578T breast,> 100 µM
same,GI50,HT29 colon,> 100 µM
same,TGI,HT29 colon,> 100 µM
same,GI50,IGROV1 ovarian,> 100 µM
same,TGI,IGROV1 ovarian,> 100 µM
same,GI50,K-562 leukemia,> 100 µM
same,TGI,K-562 leukemia,> 100 µM
same,GI50,KM12 colon,> 100 µM
same,TGI,KM12 colon,> 100 µM
same,GI50,LOX IMVI melanoma,> 100 µM
same,TGI,LOX IMVI melanoma,> 100 µM
same,GI50,M14 melanoma,> 100 µM
same,TGI,M14 melanoma,> 100 µM
same,GI50,MALME-3M melanoma,> 100 µM
same,TGI,MALME-3M melanoma,> 100 µM
same,GI50,MCF7 breast,> 100 µM
same,TGI,MCF7 breast,> 100 µM
same,GI50,MDA-MB-231 breast,> 100 µM
same,TGI,MDA-MB-231 breast,> 100 µM
same,GI50,MDA-MB-435,> 100 µM
same,TGI,MDA-MB-435,> 100 µM
same,GI50,MOLT-4 leukemia,> 100 µM
same,TGI,MOLT-4 leukemia,> 100 µM
same,GI50,NCI-H226 lung,> 100 µM
same,TGI,NCI-H226 lung,> 100 µM
same,GI50,NCI-H23 lung,> 100 µM
same,TGI,NCI-H23 lung,> 100 µM
same,GI50,NCI-H460 lung,> 100 µM
same,TGI,NCI-H460 lung,> 100 µM
same,GI50,NCI-H522 lung,> 100 µM
same,TGI,NCI-H522 lung,> 100 µM
same,GI50,NCI/ADR-RES ovarian,> 100 µM
same,TGI,NCI/ADR-RES ovarian,> 100 µM
same,GI50,OVCAR-3 ovarian,> 100 µM
same,TGI,OVCAR-3 ovarian,> 100 µM
same,GI50,OVCAR-4 ovarian,> 100 µM
same,TGI,OVCAR-4 ovarian,> 100 µM
same,GI50,OVCAR-5 ovarian,> 100 µM
same,TGI,OVCAR-5 ovarian,> 100 µM
same,GI50,OVCAR-8 ovarian,> 100 µM
same,TGI,OVCAR-8 ovarian,> 100 µM
same,GI50,PC-3 prostate,> 100 µM
same,TGI,PC-3 prostate,> 100 µM
same,GI50,RPMI-8226 leukemia,> 100 µM
same,TGI,RPMI-8226 leukemia,> 100 µM
same,GI50,RXF 393 renal,> 100 µM
same,TGI,RXF 393 renal,> 100 µM
same,GI50,SF-268 CNS,> 100 µM
same,TGI,SF-268 CNS,> 100 µM
same,GI50,SF-295 CNS,> 100 µM
same,TGI,SF-295 CNS,> 100 µM
same,GI50,SF-539 CNS,> 100 µM
same,TGI,SF-539 CNS,> 100 µM
same,GI50,SK-MEL-2 melanoma,> 100 µM
same,TGI,SK-MEL-2 melanoma,> 100 µM
same,GI50,SK-MEL-28 melanoma,> 100 µM
same,TGI,SK-MEL-28 melanoma,> 100 µM
same,GI50,SK-MEL-5 melanoma,> 100 µM
same,TGI,SK-MEL-5 melanoma,> 100 µM
same,GI50,SK-OV-3 ovarian,> 100 µM
same,TGI,SK-OV-3 ovarian,> 100 µM
same,GI50,SN12C renal,> 100 µM
same,TGI,SN12C renal,> 100 µM
same,GI50,SNB-19 CNS,> 100 µM
same,TGI,SNB-19 CNS,> 100 µM
same,GI50,SNB-75 CNS,> 100 µM
same,TGI,SNB-75 CNS,> 100 µM
same,GI50,SR leukemia,> 100 µM
same,TGI,SR leukemia,> 100 µM
same,GI50,SW-620 colon,> 100 µM
same,TGI,SW-620 colon,> 100 µM
same,GI50,T-47D breast,> 100 µM
same,TGI,T-47D breast,> 100 µM
same,GI50,TK-10 renal,> 100 µM
same,TGI,TK-10 renal,> 100 µM
same,GI50,U251 CNS,> 100 µM
same,TGI,U251 CNS,> 100 µM
same,GI50,UACC-257 melanoma,> 100 µM
same,TGI,UACC-257 melanoma,> 100 µM
same,GI50,UACC-62 melanoma,> 100 µM
same,TGI,UACC-62 melanoma,> 100 µM
same,GI50,UO-31 renal,> 100 µM
same,TGI,UO-31 renal,> 100 µM
